Measured values: PubChem BioAssay (NCI)
Several values for one entry are separate records, joined by “and”; a condition that tells them apart may be missing. Equal values may be shown once.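 All cell lines were grown in 96-well plates and treated with compound for 48 hours. At the GI50, growth is halved. TGI is the concentration that stops growth completely.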

Assays:
Test in all cases: DTP human tumour cell line panel, 48 h
A498 renal = tested on: A498 renal
DU-145 prostate = tested on: DU-145 prostate
EKVX NSCLC = tested on: EKVX NSCLC
HCT-116 colon = tested on: HCT-116 colon
MDA-MB-435 = tested on: MDA-MB-435
OVCAR-4 ovarian = tested on: OVCAR-4 ovarian
OVCAR-5 ovarian = tested on: OVCAR-5 ovarian
RXF 393 renal = tested on: RXF 393 renal
SNB-19 CNS = tested on: SNB-19 CNS
UACC-257 melanoma = tested on: UACC-257 melanoma

Compound | GI50 (A498 renal) | TGI (A498 renal) | GI50 (DU-145 prostate) | TGI (DU-145 prostate) | GI50 (EKVX NSCLC) | TGI (EKVX NSCLC) | GI50 (HCT-116 colon) | TGI (HCT-116 colon) | GI50 (MDA-MB-435) | TGI (MDA-MB-435) | GI50 (OVCAR-4 ovarian) | TGI (OVCAR-4 ovarian) | GI50 (OVCAR-5 ovarian) | TGI (OVCAR-5 ovarian) | GI50 (RXF 393 renal) | TGI (RXF 393 renal) | GI50 (SNB-19 CNS) | TGI (SNB-19 CNS) | GI50 (UACC-257 melanoma) | TGI (UACC-257 melanoma)
Cc1cc2nc3c4ccccc4n(CCN(C)C)c3nc2cc1C | 1.43 µM | 2.86 µM | 2.07 µM | 11.8 µM | 2.23 µM | 7.32 µM | 0.488 µM | 11.3 µM | 1.61 µM | 3.47 µM | 2.55 µM | 8.94 µM | 2.1 µM | 6.45 µM | 1.56 µM | 4.1 µM | 2.33 µM | 12.3 µM | 1.94 µM | 5.16 µM
CC(=O)OCC(=O)C1(O)C(C)CC2C3C=C(C)C4=Cc5c(cnn5-c5ccccc5)CC4(C)C3C(O)CC21C (stereo unspecified) | 1.4 µM | 3.94 µM | 1.93 µM | 5.74 µM | 1.48 µM | 13.1 µM | 1.45 µM | 3.12 µM | 2.33 µM | 7.33 µM | 2.29 µM | 20 µM | 1.1 µM | 3.92 µM | 0.781 µM | 2.39 µM | 2.31 µM | 11.9 µM | 2.96 µM | 12.2 µM
O=C1c2ccccc2C(=O)c2c(NC(=O)c3ccc4c5c(ncnc35)-c3ccccc3C4=O)cccc21 |  | > 100 µM |  | > 100 µM |  | > 100 µM |  | > 100 µM |  | > 100 µM |  | > 100 µM |  | > 100 µM |  | 49.1 µM |  | > 100 µM |  | > 100 µM
COC(=O)Nc1nc2ccc(Sc3ccccc3)cc2[nH]1 | 0.14 µM | 6.4 µM | 0.336 µM | 10.8 µM | 1.64 µM | 53.6 µM | 0.0771 µM | 10.1 µM | 0.0307 µM | 0.111 µM | 0.856 µM | 6.34 µM | 0.511 µM | 23.4 µM | 0.154 µM | 0.51 µM | 0.267 µM | 28.9 µM | 3.08 µM | > 66.8 µM
CC[C@@]1(OC(=O)CN)C(=O)OCc2c1cc1n(c2=O)Cc2cc3c(N)c4c(cc3nc2-1)OCO4 | 0.00226 µM | 0.0661 µM | < 0.0001 µM |  | 0.0808 µM |  | 0.000318 µM | > 100 µM | 0.00328 µM and 0.0183 µM |  | 0.0507 µM and 0.0386 µM | 0.356 µM and 0.658 µM | 0.0065 µM and 0.0427 µM |  | 0.00466 µM | 0.158 µM | 0.000124 µM | > 100 µM | 0.0158 µM | 0.228 µM
C=C(C)[C@@H]1CC[C@]2(C)[C@H](C=CC3=C4C[C@@](C)(CO)CC[C@]4(C)CC[C@]32C)[C@@]1(C)CCCN | 1.54 µM | 2.9 µM | 1.72 µM | 3.15 µM | 1.6 µM | 3.1 µM | 1.69 µM | 3.21 µM | 1.78 µM | 3.2 µM | 1.53 µM | 3.09 µM | 1.71 µM | 3.09 µM | 1.62 µM | 3.07 µM | 1.75 µM | 3.17 µM | 1.87 µM | 3.66 µM
NC(=O)NC(=O)C1CCCCC1C(=O)O (stereo unspecified) |  | > 100 µM |  | > 100 µM |  | > 100 µM |  | > 100 µM |  | > 100 µM |  | > 100 µM |  | > 100 µM |  | > 100 µM |  | > 100 µM |  | > 100 µM
C=C1C(=O)OC2CC3(C)OC3C3OC3C3=CC(OC3=O)C12 (stereo unspecified) | 15.8 µM | 30.5 µM | 16.6 µM | 34.3 µM | 19 µM | 41.9 µM | 1.67 µM | 3.15 µM | 9.57 µM | 29.3 µM | 2.14 µM | 4.86 µM | 9.05 µM | 25.7 µM | 1.81 µM | 3.66 µM | > 100 µM | > 100 µM | 1.92 µM | 4.03 µM
ClC1=C(Cl)C(Cl)=C(Cl)C1=Cc1ccc(Cl)cc1 | 1.6 µM | 3.17 µM | 0.629 µM | 2.07 µM | 0.816 µM | 3.08 µM | 0.237 µM | 0.638 µM | 0.507 µM | 2.95 µM | 0.818 µM | 2.34 µM | 0.705 µM | 2.05 µM | 0.267 µM | 0.842 µM | 1.07 µM | 2.42 µM | 1.37 µM | 3.3 µM
CS(=O)(=O)c1nc(Cl)c(Cl)c(C#N)c1Cl |  | 35.3 µM |  | 21.4 µM |  | 27.4 µM |  | 4.47 µM |  | 7 µM |  | 3.34 µM |  | 9.41 µM |  | 3.07 µM |  | 36 µM |  | 5.52 µM
N#CC[C@H](C1CCCC1)n1cc(-c2ncnc3[nH]ccc23)cn1 | 13.3 µM | 53.8 µM | 19.3 µM | > 100 µM | 14.9 µM | > 83.7 µM | 20.2 µM | > 100 µM | 26.4 µM | > 93.2 µM | 20.4 µM | > 79.1 µM | 26.7 µM | > 78.5 µM | 4.06 µM | 27.2 µM | 35.2 µM | > 100 µM | 44.2 µM | > 100 µM
O=C(CC1(O)C(=O)Nc2c(Cl)ccc(Cl)c21)c1ccc(C2CC2)cc1 (stereo unspecified) | 0.183 µM | 0.754 µM | 1.63 µM | 17.8 µM | 2.15 µM | 20.7 µM | 0.375 µM | 6.05 µM | 0.0882 µM | 0.272 µM | 12.8 µM | 32.2 µM | 2.05 µM | 16.8 µM | 0.632 µM | 2.64 µM | 1.13 µM | 16.9 µM | 2.48 µM | 24.7 µM
Brc1ccc(Br)nn1 | 3.42 µM | 17.5 µM | 3.73 µM | 13.4 µM | 8.17 µM | 24.7 µM | 1.48 µM | 2.84 µM | 1.75 µM | 3.55 µM | 1.29 µM | 2.77 µM | 11.7 µM | 24.8 µM | 1.32 µM | 2.63 µM | 3.77 µM | 15.5 µM | 1.72 µM | 3.89 µM
COc1cc(/C=C/C(=O)c2ccc(Nc3nc(Nc4ccccc4)nc(Nc4ccc(Cl)cc4)n3)cc2)cc(OC)c1OC | 28.2 µM | > 32.5 µM | > 32.5 µM | > 32.5 µM | 24.1 µM | > 32.5 µM | 2.68 µM | > 32.5 µM | 11.3 µM | > 32.5 µM | 14 µM | > 32.5 µM | 10.4 µM | > 32.5 µM | 5.09 µM | 25.3 µM | > 32.5 µM | > 32.5 µM | > 32.5 µM | > 32.5 µM
CCNCCNc1cc(-c2cccc(C(F)(F)F)c2)c(C#N)c2nc3ccccc3n12 | 1.64 µM | 3.08 µM | 1.47 µM | 2.83 µM | 1.75 µM | 3.45 µM | 0.239 µM | 0.515 µM | 1.52 µM | 2.88 µM | 1.6 µM | 3.24 µM | 1.83 µM | 3.71 µM | 1.49 µM | 3.1 µM | 1.99 µM | 3.97 µM | 1.81 µM | 3.26 µM
Cc1cccnc1CNC1CC(NCc2ncccc2C)CC(NCc2ncccc2C)C1 (stereo unspecified) | 1.78 µM | 3.3 µM | 1.88 µM | 3.58 µM | 2.56 µM | 8.14 µM | 1.63 µM | 3.24 µM | 4.16 µM | 10.7 µM | 2.88 µM | 11.9 µM | 1.92 µM | 5.23 µM | 1.92 µM | 3.9 µM | 2.04 µM | 4.03 µM | 1.74 µM | 3.58 µM
C=C1CO[C@@H]2C[C@@H]1CC/C(C)=C/CC/C(C)=C/CC[C@@]2(C)O | 35.8 µM | > 76.2 µM | 18.5 µM | 38.3 µM | 22.4 µM | 45.2 µM | 17.2 µM | 31.4 µM | 20.9 µM | 42.2 µM | 21.7 µM | 43.4 µM | 18.7 µM | 39.9 µM | 20 µM | 39.3 µM | 23.3 µM | 51.6 µM | 16.8 µM | 39.1 µM
CNCCOc1nc2c3cnccc3cc(-c3cc(OC)c(OC)c(OC)c3)c2c2ccncc12 | 0.0478 µM | 0.163 µM | 0.022 µM | 0.167 µM | 0.0782 µM | 0.432 µM | < 0.0147 µM | 0.175 µM | 0.115 µM | 0.327 µM | 0.161 µM | 0.749 µM | 0.0403 µM | 0.426 µM | 0.0469 µM | 0.188 µM | 0.0253 µM | 0.349 µM | 0.13 µM | 0.728 µM
COc1cc2c3c(c1O)C1(C=CC(=O)C=C1)CC3N(C)CC2 (stereo unspecified) |  | 48.4 µM |  | 26 µM |  | 25.6 µM |  | 14.5 µM |  | 23 µM |  | > 100 µM |  | 36.3 µM |  | 19.4 µM |  | 27.9 µM |  | 27.7 µM
CCS/C(Nc1ccccc1)=C(\C#N)C(=O)N/N=C/c1ccc(Cl)cc1Cl | 1.87 µM | 37.8 µM | 3.57 µM | > 100 µM | 5.09 µM | > 100 µM | 2.99 µM | > 100 µM | 0.419 µM | 2.23 µM | 6.57 µM | > 100 µM | 8.25 µM | > 100 µM | 2.06 µM | 8.66 µM | 4.17 µM | > 100 µM | 25.7 µM | > 100 µM
CC[C@H](C)[C@H](NC(=O)C12CC(NC(C)=O)(C1)C2)C(=O)N(C)[C@H](C[C@@H](OC(C)=O)c1nc(C(=O)N[C@@H](Cc2ccccc2)C[C@H](C)C(=O)OC)cs1)C(C)C | 0.234 µM | 1.58 µM | 0.136 µM | > 10.7 µM | 1.09 µM | > 16.7 µM | 0.101 µM | > 16.7 µM | 0.033 µM | 0.501 µM | 0.885 µM | > 16.7 µM | > 3.89 µM | > 16.7 µM | 0.359 µM | > 16.7 µM | 0.607 µM | > 16.7 µM | 7 µM | > 16.7 µM
